Laboratory results taken from ChEMBL document CHEMBL1201862, “PubChem BioAssay data set” (2004).
The source made the active and inactive calls. For most assays here, no stated cut-off is given here; in the data, actives have a measured AC50 and inactives only a lower limit.

How the values were obtained:
[1] = target: T1, Protein RecA (Mycobacterium tuberculosis, UniProt P9WHJ3); experiment: Fluorescence Cell-Free Homogeneous Dose Retest to Identify Inhibitors of RecA-Intein Splicing Activity. [Related pubchem assays (depositor defined):AID2097, AID2223, AID489010, AID492950]; format: functional
T1 sequence (P9WHJ3 whole entry): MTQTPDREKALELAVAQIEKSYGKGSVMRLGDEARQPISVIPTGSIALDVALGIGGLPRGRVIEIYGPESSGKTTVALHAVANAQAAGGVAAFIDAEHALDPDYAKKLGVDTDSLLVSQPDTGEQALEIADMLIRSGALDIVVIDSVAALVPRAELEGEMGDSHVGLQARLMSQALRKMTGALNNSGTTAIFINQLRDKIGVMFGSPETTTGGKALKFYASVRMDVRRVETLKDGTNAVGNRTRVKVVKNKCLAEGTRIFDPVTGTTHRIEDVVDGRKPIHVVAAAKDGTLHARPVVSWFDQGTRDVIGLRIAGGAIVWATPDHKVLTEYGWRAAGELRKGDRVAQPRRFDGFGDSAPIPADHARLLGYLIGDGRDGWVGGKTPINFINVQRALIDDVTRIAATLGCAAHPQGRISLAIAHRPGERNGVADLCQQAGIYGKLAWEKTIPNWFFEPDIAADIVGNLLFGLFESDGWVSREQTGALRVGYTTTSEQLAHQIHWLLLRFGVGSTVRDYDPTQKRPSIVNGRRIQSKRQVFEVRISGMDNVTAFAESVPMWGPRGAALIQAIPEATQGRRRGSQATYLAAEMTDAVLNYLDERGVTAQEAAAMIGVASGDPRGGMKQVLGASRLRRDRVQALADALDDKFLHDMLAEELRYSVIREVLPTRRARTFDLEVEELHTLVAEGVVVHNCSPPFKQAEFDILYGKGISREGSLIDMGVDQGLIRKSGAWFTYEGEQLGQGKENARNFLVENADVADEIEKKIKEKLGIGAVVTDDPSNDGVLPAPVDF

[2] = target: T2, Replicative DNA helicase DnaB (Mycobacterium tuberculosis, UniProt P9WMR3); experiment: DnaB intein splicing inhibitors, dose response, biochemical, cell-free fluorescence (AID 449749); format: functional
T2 sequence (P9WMR3 whole entry): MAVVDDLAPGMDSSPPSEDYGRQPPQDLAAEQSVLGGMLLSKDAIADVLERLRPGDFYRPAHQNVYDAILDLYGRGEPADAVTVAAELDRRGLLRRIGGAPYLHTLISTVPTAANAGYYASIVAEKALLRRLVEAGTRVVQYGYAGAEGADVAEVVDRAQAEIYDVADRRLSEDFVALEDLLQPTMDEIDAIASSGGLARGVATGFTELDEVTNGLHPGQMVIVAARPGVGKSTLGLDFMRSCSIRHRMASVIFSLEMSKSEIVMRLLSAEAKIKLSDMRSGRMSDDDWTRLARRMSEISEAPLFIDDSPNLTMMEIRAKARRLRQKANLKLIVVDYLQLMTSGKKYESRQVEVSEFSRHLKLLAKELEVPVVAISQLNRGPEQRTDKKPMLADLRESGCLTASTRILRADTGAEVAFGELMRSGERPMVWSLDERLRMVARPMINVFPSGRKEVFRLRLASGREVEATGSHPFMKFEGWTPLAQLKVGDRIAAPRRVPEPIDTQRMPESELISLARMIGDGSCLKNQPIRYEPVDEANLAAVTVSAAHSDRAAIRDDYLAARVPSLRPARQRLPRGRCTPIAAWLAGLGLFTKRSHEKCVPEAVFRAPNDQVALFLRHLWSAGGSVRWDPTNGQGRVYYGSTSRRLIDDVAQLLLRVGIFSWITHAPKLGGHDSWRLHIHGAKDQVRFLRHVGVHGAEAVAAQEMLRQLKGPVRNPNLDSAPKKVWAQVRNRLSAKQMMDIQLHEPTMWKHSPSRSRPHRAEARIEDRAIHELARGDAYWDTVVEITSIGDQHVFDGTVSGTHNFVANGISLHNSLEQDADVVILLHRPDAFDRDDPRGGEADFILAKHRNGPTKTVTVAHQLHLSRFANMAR

[3] = target: T3, Histone-lysine N-methyltransferase NSD2 (Homo sapiens, UniProt O96028); format: biochemical
T3 sequence (O96028 whole entry): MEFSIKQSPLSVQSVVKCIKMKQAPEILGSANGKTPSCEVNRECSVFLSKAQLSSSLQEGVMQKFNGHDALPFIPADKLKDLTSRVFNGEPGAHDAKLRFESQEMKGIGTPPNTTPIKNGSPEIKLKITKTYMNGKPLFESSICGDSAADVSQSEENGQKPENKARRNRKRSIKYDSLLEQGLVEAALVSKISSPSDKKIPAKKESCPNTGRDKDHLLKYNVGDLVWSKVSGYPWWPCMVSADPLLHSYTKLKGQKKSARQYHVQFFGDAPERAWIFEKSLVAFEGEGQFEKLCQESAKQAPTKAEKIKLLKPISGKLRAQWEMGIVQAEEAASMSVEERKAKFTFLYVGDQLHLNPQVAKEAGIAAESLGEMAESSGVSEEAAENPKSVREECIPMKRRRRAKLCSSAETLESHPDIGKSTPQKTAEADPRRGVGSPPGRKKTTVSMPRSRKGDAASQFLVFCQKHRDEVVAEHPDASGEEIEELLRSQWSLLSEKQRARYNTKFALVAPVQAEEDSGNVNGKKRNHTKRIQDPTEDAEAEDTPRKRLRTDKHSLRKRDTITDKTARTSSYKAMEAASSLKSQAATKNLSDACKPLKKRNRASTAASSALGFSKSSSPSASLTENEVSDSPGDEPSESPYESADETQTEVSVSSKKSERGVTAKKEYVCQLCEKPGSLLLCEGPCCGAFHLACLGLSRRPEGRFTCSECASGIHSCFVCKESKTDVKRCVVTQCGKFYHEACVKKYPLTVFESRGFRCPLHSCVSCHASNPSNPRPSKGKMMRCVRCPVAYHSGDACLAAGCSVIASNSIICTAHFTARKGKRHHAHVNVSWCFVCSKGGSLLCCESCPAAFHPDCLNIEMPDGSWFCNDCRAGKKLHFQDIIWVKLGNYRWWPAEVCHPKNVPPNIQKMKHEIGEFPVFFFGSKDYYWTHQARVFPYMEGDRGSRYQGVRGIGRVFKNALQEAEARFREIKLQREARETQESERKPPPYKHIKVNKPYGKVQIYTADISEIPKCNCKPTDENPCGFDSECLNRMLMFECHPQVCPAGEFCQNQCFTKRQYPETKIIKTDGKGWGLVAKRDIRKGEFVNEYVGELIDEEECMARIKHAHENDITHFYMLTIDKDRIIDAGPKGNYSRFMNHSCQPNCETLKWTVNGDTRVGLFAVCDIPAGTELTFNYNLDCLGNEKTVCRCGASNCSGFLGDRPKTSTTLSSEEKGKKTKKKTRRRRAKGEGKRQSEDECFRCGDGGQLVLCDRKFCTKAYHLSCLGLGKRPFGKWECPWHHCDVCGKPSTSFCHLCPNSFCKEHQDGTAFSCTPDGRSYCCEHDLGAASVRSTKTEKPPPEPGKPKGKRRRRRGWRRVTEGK

Structure (SMILES)	EC50 [1]	AC50 [2]	AC50 [3]
COc1cc2c(cc1OC)-c1c(OC)c(OC)cc3c1[C@H](C2)N(C)CC3	4.91 µM (active)	3.6 µM (active)	
O=C1C(Cl)=C(N2CCC(C(=O)O)CC2)C(=O)c2ccccc21	5.78 µM (active)	19.3 µM (active)	1.46 µM (active)
COC1=C(c2ccccc2)C(=O)c2ccccc2C1=O	13.3 µM (active)	13.4 µM (active)	> 20 µM (inactive)
